“Also recorded” adds a separate entry of the source.
Legend:
NC/Nga mice [1] = assay: Scratching behavior (itch) in PiCl-sensitized NC/Nga dermatitis model mice, video monitoring; assay type: in vivo
Source text: On day 12, day 19, day 26 and day 33 after starting application of Vaseline or fucoxanthin, 0.8% picryl chloride (PiCl) was further applied to the back skin of the mice. The behaviors of the mice were observed by video monitoring. On day 34 after starting application of Vaseline or fucoxanthin, bromodeoxyuridine (BrdU, Nacalai Tesque) ([…]) was intraperitoneally administered to the mice. At 5 weeks after starting application of Vaseline or fucoxanthin, the time each mouse spent for scratching behavior in 10 minutes was measured by video monitoring. Then, the mice were sacrificed and the auricular lymph node, blood and skin were obtained. Serum IgE content was determined by enzyme-linked immunosorbent assay (ELISA) using Mouse IgE Assay Kit (Morinaga Institute of Biological Science, Inc.). […] BrdU uptake was determined by ELISA using Cell Proliferation ELISA, BrdU (Colorimetric) (Roche Diagnostics K.K.).
In the same manner as described in Example 2, Vaseline, fucoxanthin or tacrolimus and PiCl were applied to NC/Nga mice. At 5 weeks after starting application of fucoxanthin or tacrolimus, the time spent for scratching behavior per 10 minutes in the mice treated with fucoxanthin was measured and compared to that in the mice treated with tacrolimus. […]

NC/Nga mice [2] = assay: Serum IgE content by ELISA in NC/Nga mice; assay type: in vivo; conditions: topical application for 5 weeks, PiCl-sensitized, vs Vaseline
Source text: (§1) NC/Nga mice (5 weeks old, female) were purchased from Japan SLC, Inc. […] On day 12, day 19, day 26 and day 33 after starting application of Vaseline or fucoxanthin, 0.8% picryl chloride (PiCl) was further applied to the back skin of the mice. The behaviors of the mice were observed by video monitoring. On day 34 after starting application of Vaseline or fucoxanthin, bromodeoxyuridine (BrdU, Nacalai Tesque) (0.[…] weight) was intraperitoneally administered to the mice. At 5 weeks after starting application of Vaseline or fucoxanthin, the time each mouse spent for scratching behavior in 10 minutes was measured by video monitoring. Then, the mice were sacrificed and the auricular lymph node, blood and skin were obtained. Serum IgE content was determined by enzyme-linked immunosorbent assay (ELISA) using Mouse IgE Assay Kit (Morinaga Institute of Biological Science, Inc.). […] BrdU uptake was determined by ELISA using Cell Proliferation ELISA, BrdU (Colorimetric) (Roche Diagnostics K.K.). […] Also, serum IgE levels and swelling of the auricular lymph nodes of the mice were determined in the same manner as described in Example 2.

NC/Nga mice [3] = assay: Swelling (length) of the auricular lymph node in NC/Nga mice; assay type: in vivo; conditions: topical application for 5 weeks, PiCl-sensitized, vs Vaseline
Source text: as §1

NC/Nga mice [4] = assay: Toluidine blue staining of skin specimens, number of TB-positive (mast) cells; assay type: in vivo; conditions: 0.1% fucoxanthin in Vaseline, 5 weeks, vs Vaseline-applied mice
Method: In the same manner as described in Example 2, Vaseline or fucoxanthin and PiCl were applied to NC/Nga mice. At 5 weeks after starting application of Vaseline or fucoxanthin, the mice were sacrificed, the mice skins were fixed with 4% paraformaldehyde and embedded in paraffin. The skin specimen was stained with toluidine blue (TB) (pH=4.1). Imaging of the stained specimen was performed by Virtual Slide System (Olympus).

[5] = test system: bone marrow-derived mast cells (BMMCs); assay: Degranulation of BMMCs, β-hexosaminidase release after anti-DNP-IgE / DNP-HSA stimulation; assay type: cell-based, mice; conditions: pre-treated with 0.1 μM, 1 μM or 10 μM before DNP-HSA stimulation, vs DMSO
Method: The degranulation of BMMCs was evaluated by measuring β-hexosaminidase activity in the culture solution of the mature mast cells. Bone marrow cells obtained from 8-week-old female mice were cultured in a medium for conditioning containing interleukin-3 (IL-3) for 4 weeks to give mature mast cells. The mature mast cells thus prepared were cultured in 24-well plate (5×10^3 cells/well) overnight, and sensitized with 50 ng/mL anti-DNP-IgE (Sigma Chemicals) at 37° C. for 2 hours. The cells were rinsed by MT buffer (137 mmol/L NaCl, 2.7 mmol/L KCl, 1.8 mmol/L CaCl2, 1 mmol/L MgCl2.6H2O, 5.6 mmol/L glucose, 20 mmol/L HEPES, 0.1% BSA, pH7.3), and pre-treated with 0.1 μM, 1 μM or 10 μM fucoxanthin, or dimethyl sulfoxide (DMSO) for 10 minutes. Then, the cells were treated with 2.5 μg/mL DNP-labeled human serum albumin (Sigma Chemicals) at 37° C. for 30 minutes. After incubation, the supernatant was transferred to a 96-well plate and incubated with 3.3 mM p-nitrophenyl-2-acetamide-2-deoxy-β-glucopyranoside at 37° C. for 25 minutes. Absorbance at 405 nm was measured using microplate reader. The results are shown as percentage of total β-hexosaminidase.

filaggrin = assay: Semi-quantitative immunoblot of skin proteins of NC/Nga mice; assay type: in vivo; conditions: topical treatment for 5 weeks, vs Vaseline
Method: (§2) The immunoblot analysis was performed according to the method described in Kosaka, T. et al. (supra). Mice skin proteins were analyzed by SDS-10% polyacrylamide gel electrophoresis. The blots were incubated with a rabbit anti-filaggrin antibody (Santa Cruz Biotechnology, Inc., Santa Cruz, Calif.), a rabbit anti-actin antibody (Santa Cruz Biotechnology, Inc., Santa Cruz, Calif.) or a rabbit anti-loricrin antibody (Covance, Berkeley, Calif.), and then reacted with a horseradish peroxidase-conjugated anti-rabbit IgG or anti-donkey IgG (Santa Cruz Biotechnology, Inc.).

loricrin = assay: as above; assay type: in vivo; conditions: topical treatment for 5 weeks, vs Vaseline
Method: as §2

NC/Nga mice [6] = assay: Clinical symptoms of dermatitis in PiCl-sensitized NC/Nga mice; assay type: in vivo; conditions: topical application plus PiCl, at 5 weeks
Method: Next, we examined the effects of fucoxanthin and astaxanthin on clinical symptoms of dermatitis in NC/Nga mice. In the same manner as described in Example 2, fucoxanthin or astaxanthin and PiCl were applied to NC/Nga mice. […] In the same manner as described in Example 2, Vaseline, fucoxanthin or tacrolimus and PiCl were applied to NC/Nga mice. […] Also, serum IgE levels and swelling of the auricular lymph nodes of the mice were determined in the same manner as described in Example 2.

NC/Nga mice [7] = assay: Transdermal water loss (TEWL) in the skin of NC/Nga mice; assay type: in vivo; conditions: topical application plus PiCl, at 5 weeks, vs Vaseline
Method: Transdermal water loss (TEWL) in the skin of the mice treated with fucoxanthin was also measured and compared with that in the skin of the mice treated with tacrolimus.

SMILES: CC(=O)O[C@H]1CC(C)(C)C(=C=C/C(C)=C/C=C/C(C)=C/C=C/C=C(C)/C=C/C=C(\C)C(=O)C[C@@]23O[C@]2(C)C[C@@H](O)CC3(C)C)[C@](C)(O)C1 [fucoxanthin]
- time spent for scratching behavior in 10 minutes (NC/Nga mice [1]; applied daily to back skin (0.1% (w/w) fucoxanthin in Vaseline), PiCl sensitization, at 5 weeks, vs Vaseline-applied mice): attenuated; also recorded: remarkably shorter
- speed of action on itch compared with tacrolimus (NC/Nga mice [1]; topical application, PiCl-sensitized NC/Nga mice, scratching time per 10 minutes): faster-acting than tacrolimus
- serum IgE level (NC/Nga mice [2]): neither ear swelling (FIG. 9A) nor serum IgE level (FIG. 9B) were affected; also recorded: did not vary
- swelling of the auricular lymph node (ear swelling) (NC/Nga mice [3]): neither ear swelling (FIG. 9A) nor serum IgE level (FIG. 9B) were affected; also recorded: failed to attenuate lymph inflammation; also recorded: not affected
- number of toluidine blue (TB)-positive cells in skin (NC/Nga mice [4]): remarkably lower
- release of β-hexosaminidase (degranulation) [5]: suppressed release of β-hexosaminidase in a dose-dependent manner
- filaggrin expression level in skin (western blot) (filaggrin): elevated
- loricrin expression level in skin (western blot) (loricrin): elevated
- clinical symptoms of dermatitis (AD symptoms) (NC/Nga mice [6]): remarkably improved; also recorded: almost completely did; also recorded: ameliorated clinical symptom of dermatitis
- transdermal water loss (TEWL) (NC/Nga mice [7]): remarkably inhibited moisture evaporation
